Data reported in ChEMBL document CHEMBL1201862, “PubChem BioAssay data set” (2004).
Calls of active or inactive are those of the source.

Tests used:
[1] = target: T1, Mitochondrial peptide methionine sulfoxide reductase (Bos taurus, UniProt P54149); format: functional;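 for IC50: absorbance read-out, biochemical high-throughput dose-response screen for MsrA inhibitors, confirmatory; recombinant bovine MsrA coupled to E. coli TrxB with NADPH and selenocystamine; potency is for inhibitors of MsrA activity on DMSO substrate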
T1 sequence (P54149 whole entry): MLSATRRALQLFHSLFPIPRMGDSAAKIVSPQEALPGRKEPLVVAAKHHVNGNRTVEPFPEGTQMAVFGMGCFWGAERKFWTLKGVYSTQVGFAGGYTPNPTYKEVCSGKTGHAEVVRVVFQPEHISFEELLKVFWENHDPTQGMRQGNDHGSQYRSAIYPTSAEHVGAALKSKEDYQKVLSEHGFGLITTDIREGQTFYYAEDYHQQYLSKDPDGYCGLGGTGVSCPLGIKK

[2] = inhibitors of firefly luciferase expression or activity, dose response, H4 neuroglioma cells, luminescence (AID 1990); format: functional, cell-based
[3] = inhibitors of intracellular T. cruzi replication, confirmation, NIH3T3 host cells, beta-gal luminescence (AID 2044); format: functional, cell-based;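 note: intracellular parasites grown in NIH/3T3 mouse fibroblasts as host cells; luminescent beta-galactosidase reporter signal from transgenic T. cruzi replicating inside host cells; inhibitors lower the luminescence signal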
[4] = cytotoxicity in NIH3T3 fibroblasts, dose response, cytotoxicity control for HSP40 inhibitor project, cell-based, CellTiter-Glo luminescence, cherry-pick, set 2 (AID 624265); format: functional
[5] = Luminescence Cell-Based Dose Response HTS to Identify Inhibitors of 5'UTR Stem-Loop Driven Prion Protein mRNA Translation in H4 Neuroglioblastoma Cells. [Related pubchem assays: 1827 (Project Summary), 1813 (Primary HTS)]; format: functional
[6] = cytotoxicity toward NIH3T3 fibroblasts, dose response, counter-screen, cell-based, ATP luminescence, mouse fibroblasts (AID 2010); format: functional;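 note: cells exposed to compound for about 90 hours before reading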
[7] = inhibitors of SNCA 5'UTR-driven reporter translation, confirmation, H4 neuroglioma cells, luminescence (AID 1988); format: functional, cell-based
[8] = target: Heat shock protein HSP 90-alpha (Homo sapiens, UniProt P07900); format: functional, organism-based
[9] = target: Multidrug resistance protein CDR2 (Candida albicans (strain SC5314 / ATCC MYA-2876) (Yeast), UniProt P78595); test: CaCDR2 efflux pump inhibitors in yeast, dose response, S. cerevisiae AD1-8u, singleplex, Cherry Pick1 hits (AID 588604); format: functional
[10] = target: Multidrug resistance protein CDR1 (Candida albicans, UniProt P43071); test: CaCDR1 efflux pump inhibitors in yeast, dose response, S. cerevisiae AD1-8u, singleplex, Cherry Pick1 hits (AID 588606); format: functional
[11] = target: Benomyl/methotrexate resistance protein (Candida albicans, UniProt P28873); test: CaMdr1 efflux pump inhibitor potency, dose response, singleplex, Cherry Pick1 hits (AID 588608); format: functional
Chain of Benomyl/methotrexate resistance protein (P28873 whole entry): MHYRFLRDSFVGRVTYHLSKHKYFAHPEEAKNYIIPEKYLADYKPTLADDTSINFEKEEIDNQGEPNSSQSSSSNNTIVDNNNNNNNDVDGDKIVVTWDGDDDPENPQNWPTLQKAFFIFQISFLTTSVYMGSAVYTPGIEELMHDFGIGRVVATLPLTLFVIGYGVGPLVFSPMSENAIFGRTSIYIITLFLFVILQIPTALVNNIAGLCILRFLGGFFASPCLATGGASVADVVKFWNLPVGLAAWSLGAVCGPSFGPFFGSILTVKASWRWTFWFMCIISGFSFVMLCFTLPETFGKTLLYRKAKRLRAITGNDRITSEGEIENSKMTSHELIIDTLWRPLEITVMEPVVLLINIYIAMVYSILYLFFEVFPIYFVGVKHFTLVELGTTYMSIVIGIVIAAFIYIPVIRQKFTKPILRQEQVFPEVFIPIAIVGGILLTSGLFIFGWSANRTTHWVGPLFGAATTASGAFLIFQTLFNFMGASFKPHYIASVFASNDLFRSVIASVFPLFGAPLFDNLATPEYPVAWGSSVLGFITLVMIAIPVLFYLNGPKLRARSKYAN

[12] = target: T2, Histone-lysine N-methyltransferase NSD2 (Homo sapiens, UniProt O96028); format: biochemical
T2 sequence (O96028 whole entry): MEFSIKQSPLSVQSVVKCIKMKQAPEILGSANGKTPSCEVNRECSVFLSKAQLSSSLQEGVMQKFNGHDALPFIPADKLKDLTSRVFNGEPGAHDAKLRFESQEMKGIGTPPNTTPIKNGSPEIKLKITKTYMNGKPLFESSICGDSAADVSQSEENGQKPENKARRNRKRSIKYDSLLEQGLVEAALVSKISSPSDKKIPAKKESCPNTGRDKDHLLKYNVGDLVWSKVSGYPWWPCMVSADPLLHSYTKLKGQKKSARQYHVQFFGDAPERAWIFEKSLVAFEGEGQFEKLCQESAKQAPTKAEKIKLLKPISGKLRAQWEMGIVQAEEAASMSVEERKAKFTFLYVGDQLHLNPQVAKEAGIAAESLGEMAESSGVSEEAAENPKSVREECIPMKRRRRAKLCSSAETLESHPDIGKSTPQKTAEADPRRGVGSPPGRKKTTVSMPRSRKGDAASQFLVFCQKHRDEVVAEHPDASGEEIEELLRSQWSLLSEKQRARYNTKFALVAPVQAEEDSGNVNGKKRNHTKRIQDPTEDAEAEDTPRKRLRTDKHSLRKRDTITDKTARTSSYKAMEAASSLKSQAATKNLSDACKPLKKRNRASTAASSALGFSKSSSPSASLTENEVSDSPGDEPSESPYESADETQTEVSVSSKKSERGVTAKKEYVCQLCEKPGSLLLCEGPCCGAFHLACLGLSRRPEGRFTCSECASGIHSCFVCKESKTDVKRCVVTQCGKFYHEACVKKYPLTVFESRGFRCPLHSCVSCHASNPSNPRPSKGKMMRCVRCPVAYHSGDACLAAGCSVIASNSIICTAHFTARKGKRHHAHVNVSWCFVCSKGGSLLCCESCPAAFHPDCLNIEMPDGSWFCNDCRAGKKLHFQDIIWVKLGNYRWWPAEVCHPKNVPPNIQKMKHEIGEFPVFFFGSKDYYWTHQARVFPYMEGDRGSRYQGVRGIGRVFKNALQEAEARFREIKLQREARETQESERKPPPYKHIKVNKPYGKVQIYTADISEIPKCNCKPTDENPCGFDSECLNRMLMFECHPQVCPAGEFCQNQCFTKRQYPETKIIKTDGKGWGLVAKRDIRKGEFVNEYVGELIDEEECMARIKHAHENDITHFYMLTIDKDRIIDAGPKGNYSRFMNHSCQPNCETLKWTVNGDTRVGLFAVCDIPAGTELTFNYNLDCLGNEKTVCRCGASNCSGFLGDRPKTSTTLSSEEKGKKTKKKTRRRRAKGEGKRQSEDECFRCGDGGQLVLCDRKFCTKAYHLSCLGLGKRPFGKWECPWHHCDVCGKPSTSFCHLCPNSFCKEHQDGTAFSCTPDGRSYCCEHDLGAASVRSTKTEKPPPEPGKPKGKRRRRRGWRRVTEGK

Paired box protein Pax-8 = Paired box protein Pax-8 (Homo sapiens, UniProt Q06710); test: inhibitors of PAX8-driven TPO luciferase reporter, dose response, RMG-I cells, cherry-pick (AID 687027); format: functional, cell-based;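 note: luciferase reporter driven by Pax8 target thyroperoxidase promoter measured by SteadyGlo luminescence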
Chain of Paired box protein Pax-8 (Q06710 whole entry): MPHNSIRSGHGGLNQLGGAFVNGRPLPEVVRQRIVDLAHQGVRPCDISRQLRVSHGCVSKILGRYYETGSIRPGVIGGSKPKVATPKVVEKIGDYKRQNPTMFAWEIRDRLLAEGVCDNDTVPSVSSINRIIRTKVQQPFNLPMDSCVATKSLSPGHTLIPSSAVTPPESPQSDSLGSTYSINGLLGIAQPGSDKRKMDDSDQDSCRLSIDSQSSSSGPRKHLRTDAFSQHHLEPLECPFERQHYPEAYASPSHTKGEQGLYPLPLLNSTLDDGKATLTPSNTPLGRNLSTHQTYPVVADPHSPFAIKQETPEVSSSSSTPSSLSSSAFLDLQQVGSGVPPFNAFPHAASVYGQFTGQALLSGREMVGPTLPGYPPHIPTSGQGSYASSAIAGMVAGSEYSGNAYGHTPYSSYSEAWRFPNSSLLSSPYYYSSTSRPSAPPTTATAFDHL

[13] = target: 1-phosphatidylinositol 4,5-bisphosphate phosphodiesterase beta-3 (Homo sapiens, UniProt Q01970); test: Fluorescence-based biochemical high throughput dose response assay to identify inhibitors of phospholipase C isozymes (PLC-B3).
[14] = target: T1, Mitochondrial peptide methionine sulfoxide reductase; test: Absorbance-based biochemical high throughput dose response assay for activators of Methionine sulfoxide reductase A (MsrA).; format: functional
[15] = non-specific cell cytotoxicity, dose response, cytotoxicity control for PAX8 inhibitor project, plate reader, dry powder samples (AID 743021); format: functional, cell-based
[16] = target: T3, Tyrosyl-DNA phosphodiesterase 2 (Homo sapiens, UniProt O95551); test: human TDP2 enzyme inhibitors, dose response, biochemical, epi absorbance, IC50 (AID 743297)
T3 sequence (O95551 whole entry): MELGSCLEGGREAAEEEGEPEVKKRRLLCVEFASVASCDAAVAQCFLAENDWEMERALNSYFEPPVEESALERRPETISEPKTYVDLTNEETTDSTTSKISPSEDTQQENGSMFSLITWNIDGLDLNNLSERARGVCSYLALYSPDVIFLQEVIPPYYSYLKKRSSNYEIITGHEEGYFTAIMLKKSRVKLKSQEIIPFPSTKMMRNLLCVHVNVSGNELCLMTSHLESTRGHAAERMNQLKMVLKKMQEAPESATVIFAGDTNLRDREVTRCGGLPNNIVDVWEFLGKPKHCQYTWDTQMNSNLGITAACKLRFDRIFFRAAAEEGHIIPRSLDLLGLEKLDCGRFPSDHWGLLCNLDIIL

[17] = target: Ras and Rab interactor 1/Tyrosine-protein kinase ABL1 (Homo sapiens, UniProt P00519+Q13671); format: functional;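 note: biochemical TR-FRET dose-response test measuring inhibition of binding between Rin1 and Abl proteins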
Chain of Ras and Rab interactor 1/Tyrosine-protein kinase ABL1 (P00519 whole entry, the tested form may be a part): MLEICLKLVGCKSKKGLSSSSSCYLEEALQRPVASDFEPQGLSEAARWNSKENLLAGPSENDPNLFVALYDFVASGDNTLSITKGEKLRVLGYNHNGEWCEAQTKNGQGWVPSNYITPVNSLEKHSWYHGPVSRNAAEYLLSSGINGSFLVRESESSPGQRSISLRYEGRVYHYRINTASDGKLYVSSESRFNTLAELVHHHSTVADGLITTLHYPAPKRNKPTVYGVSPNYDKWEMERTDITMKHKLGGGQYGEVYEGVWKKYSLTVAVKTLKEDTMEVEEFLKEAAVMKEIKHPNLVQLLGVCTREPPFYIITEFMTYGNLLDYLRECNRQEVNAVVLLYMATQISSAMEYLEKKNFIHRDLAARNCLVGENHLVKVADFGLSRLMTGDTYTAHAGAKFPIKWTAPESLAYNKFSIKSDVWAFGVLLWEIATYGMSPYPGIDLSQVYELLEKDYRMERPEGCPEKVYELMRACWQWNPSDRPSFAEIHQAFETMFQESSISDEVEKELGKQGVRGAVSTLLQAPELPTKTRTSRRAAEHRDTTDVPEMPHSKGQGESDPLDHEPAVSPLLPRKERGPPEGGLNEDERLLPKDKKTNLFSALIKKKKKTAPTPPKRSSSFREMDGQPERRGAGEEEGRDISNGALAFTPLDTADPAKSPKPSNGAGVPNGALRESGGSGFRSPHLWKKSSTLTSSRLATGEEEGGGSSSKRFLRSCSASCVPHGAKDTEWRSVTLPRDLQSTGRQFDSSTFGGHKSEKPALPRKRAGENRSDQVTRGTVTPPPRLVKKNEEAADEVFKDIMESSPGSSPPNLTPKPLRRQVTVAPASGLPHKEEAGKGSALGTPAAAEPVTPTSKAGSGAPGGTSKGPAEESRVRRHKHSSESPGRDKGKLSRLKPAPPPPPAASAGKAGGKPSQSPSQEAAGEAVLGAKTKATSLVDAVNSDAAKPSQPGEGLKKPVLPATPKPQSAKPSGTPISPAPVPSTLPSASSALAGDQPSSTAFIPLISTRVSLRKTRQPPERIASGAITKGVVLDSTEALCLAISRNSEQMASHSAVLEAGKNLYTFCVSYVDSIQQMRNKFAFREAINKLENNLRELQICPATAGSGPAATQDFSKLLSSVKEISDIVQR
Chain of Ras and Rab interactor 1/Tyrosine-protein kinase ABL1 (Q13671 whole entry, the tested form may be a part): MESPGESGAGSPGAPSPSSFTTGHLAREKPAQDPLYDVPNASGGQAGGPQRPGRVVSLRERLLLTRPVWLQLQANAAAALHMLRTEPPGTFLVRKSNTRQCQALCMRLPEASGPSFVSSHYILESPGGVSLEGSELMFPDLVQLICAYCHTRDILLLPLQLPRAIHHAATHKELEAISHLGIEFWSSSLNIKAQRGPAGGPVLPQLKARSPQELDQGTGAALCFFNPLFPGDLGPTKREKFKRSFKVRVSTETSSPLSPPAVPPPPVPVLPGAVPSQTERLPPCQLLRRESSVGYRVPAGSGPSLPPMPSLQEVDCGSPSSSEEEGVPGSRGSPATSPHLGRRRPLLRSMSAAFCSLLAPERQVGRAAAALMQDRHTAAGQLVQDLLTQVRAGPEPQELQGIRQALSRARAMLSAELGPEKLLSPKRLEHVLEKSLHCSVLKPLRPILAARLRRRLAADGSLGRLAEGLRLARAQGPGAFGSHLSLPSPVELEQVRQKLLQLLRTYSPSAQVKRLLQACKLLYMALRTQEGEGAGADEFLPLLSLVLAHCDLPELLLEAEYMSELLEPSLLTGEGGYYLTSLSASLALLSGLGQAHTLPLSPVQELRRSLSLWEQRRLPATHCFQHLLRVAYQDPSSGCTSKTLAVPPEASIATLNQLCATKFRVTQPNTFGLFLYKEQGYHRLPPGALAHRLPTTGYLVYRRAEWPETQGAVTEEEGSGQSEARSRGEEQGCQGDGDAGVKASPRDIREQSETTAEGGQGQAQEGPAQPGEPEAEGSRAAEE

[18] = target: Photoreceptor-specific nuclear receptor (Homo sapiens, UniProt Q9Y5X4); format: functional, cell-based;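 note: CHO-S cells with Gal4-NCOR and VP16-NR2E3 two-hybrid luciferase reporter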
[19] = target: RNA-editing ligase 1, mitochondrial (Trypanosoma brucei brucei, UniProt P86926); test: TbREL1 ligase inhibitors, dose response, biochemical, fluorescence, Trypanosoma brucei (AID 1117295); format: functional
[20] = target: 1-phosphatidylinositol 4,5-bisphosphate phosphodiesterase gamma-1 (Homo sapiens, UniProt P19174); test: Counterscreen for inhibitors of phospholipase C isozymes (PLC-B3): Fluorescence-based biochemical high throughput dose response assay to identify inhibitors of phospholipase C isozymes (PLC-gamma1).
[21] = target: T4, ATP-dependent translocase ABCB1 (Homo sapiens, UniProt P08183); test: ABCG2 efflux pump inhibitor potency, dose response, Ig-MXP3 cells, JC-1, flow cytometry, set 2 (AID 504566); format: functional; settings: read-out: EC50_MICROM_;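 note: flow cytometry median green fluorescence of retained JC-1 dye; potency of efflux pump inhibition measured as rising substrate retention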
T4 sequence (P08183 whole entry): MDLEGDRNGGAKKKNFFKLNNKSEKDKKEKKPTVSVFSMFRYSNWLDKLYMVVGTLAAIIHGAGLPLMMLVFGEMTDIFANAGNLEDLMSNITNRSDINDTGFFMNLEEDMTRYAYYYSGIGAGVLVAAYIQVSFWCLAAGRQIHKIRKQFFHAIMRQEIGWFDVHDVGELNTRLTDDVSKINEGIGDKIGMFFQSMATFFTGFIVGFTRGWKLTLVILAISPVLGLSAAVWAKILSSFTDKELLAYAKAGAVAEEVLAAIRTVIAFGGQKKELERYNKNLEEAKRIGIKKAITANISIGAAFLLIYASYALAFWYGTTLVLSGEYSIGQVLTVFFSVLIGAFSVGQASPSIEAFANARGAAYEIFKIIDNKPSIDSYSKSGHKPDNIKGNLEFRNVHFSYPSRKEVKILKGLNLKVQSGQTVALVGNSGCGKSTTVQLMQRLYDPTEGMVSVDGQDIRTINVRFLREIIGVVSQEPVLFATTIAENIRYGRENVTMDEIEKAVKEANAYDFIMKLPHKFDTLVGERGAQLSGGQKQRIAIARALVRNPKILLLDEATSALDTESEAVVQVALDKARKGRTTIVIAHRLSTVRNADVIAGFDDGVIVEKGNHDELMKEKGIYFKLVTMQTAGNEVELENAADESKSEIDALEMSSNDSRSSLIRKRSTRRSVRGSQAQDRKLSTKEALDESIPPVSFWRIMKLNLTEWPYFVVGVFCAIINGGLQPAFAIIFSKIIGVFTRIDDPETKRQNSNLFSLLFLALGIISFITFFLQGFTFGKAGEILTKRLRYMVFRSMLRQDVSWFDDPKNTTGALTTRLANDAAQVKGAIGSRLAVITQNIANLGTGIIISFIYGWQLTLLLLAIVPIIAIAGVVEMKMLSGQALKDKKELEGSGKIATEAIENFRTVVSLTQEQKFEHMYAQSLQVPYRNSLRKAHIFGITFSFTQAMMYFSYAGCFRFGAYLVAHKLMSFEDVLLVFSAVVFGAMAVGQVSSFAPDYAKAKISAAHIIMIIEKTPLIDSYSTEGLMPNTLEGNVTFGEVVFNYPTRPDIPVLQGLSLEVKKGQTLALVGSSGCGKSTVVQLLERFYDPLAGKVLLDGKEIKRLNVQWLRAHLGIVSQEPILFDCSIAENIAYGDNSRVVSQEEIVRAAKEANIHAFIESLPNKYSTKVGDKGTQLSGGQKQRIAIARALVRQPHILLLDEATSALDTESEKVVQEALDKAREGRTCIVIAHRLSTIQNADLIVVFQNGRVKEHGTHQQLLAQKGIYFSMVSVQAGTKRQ

[22] = target: T4, ATP-dependent translocase ABCB1; test: ABCB1 efflux inhibitor potency, dose response, Jurkat-DNR cells, JC-1, flow cytometry, set 2 (AID 504569); format: functional; settings: read-out: EC50_MICROM_;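 note: potency of pump inhibitors that raise cellular JC-1 green fluorescence up to the nicardipine level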
[23] = ARNT/TACC3 interaction disruptors, potency, confirmation, biochemical, AlphaScreen, cherry-picked samples (AID 651703); format: functional, Homo sapiens;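 note: His-tagged ARNT PAS-B domain paired with GST-TACC3 E629A dimer coactivator fragment; potency of inhibitors that break up the complex and lower AlphaScreen signal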
BJ [24] = test: cytotoxicity toward BJ-TERT-LT-ST fibroblasts, dose response, cell-based, RAS-independent, luminescence (AID 1935); format: functional; settings: Homo sapiens;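 note: BJ fibroblasts immortalized with TERT plus LT and ST oncogenes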
Beta Lactamase = Beta Lactamase (Pseudomonas aeruginosa, UniProt Q932Y6); test: beta-lactamase reporter inhibitor potency, dose response, artefact control for NOD2-RIPK2 interaction inhibitor project, BLA reporter cells, FRET fluorescence (AID 651552); format: functional, cell-based
Chain of Beta Lactamase (Q932Y6 whole entry): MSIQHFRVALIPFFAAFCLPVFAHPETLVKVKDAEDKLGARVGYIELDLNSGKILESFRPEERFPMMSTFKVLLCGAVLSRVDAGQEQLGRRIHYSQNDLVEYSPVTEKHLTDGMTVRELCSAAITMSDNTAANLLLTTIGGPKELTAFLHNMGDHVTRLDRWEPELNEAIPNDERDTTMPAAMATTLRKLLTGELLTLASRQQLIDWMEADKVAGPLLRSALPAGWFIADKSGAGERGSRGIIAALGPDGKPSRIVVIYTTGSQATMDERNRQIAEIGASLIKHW

BJ [25] = test: cytotoxicity toward Ras-transformed BJeLR fibroblasts, dose response, cell-based, alamar blue fluorescence, cherrypicked samples (AID 2631); format: functional; settings: Homo sapiens;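 note: confirmatory dose-response assay in RAS-dependent BJ fibroblasts engineered with TERT, LT and ST, with cytotoxicity read by fluorescence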
[26] = target: T5, Heat shock factor protein 1 (Mus musculus, UniProt P38532); test: HSF1 potentiators in luciferase reporter cells, confirmation, cell-based, NIH3T3, luminescence, dose retest (AID 435004); format: functional;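 note: stress induced by proteasome inhibitor MG132 added 30 min after compound; luciferase reporter driven by HSF1 response element in NIH3T3 cells; actives raise luminescence as potentiators of the MG132 stress response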
T5 sequence (P38532 whole entry): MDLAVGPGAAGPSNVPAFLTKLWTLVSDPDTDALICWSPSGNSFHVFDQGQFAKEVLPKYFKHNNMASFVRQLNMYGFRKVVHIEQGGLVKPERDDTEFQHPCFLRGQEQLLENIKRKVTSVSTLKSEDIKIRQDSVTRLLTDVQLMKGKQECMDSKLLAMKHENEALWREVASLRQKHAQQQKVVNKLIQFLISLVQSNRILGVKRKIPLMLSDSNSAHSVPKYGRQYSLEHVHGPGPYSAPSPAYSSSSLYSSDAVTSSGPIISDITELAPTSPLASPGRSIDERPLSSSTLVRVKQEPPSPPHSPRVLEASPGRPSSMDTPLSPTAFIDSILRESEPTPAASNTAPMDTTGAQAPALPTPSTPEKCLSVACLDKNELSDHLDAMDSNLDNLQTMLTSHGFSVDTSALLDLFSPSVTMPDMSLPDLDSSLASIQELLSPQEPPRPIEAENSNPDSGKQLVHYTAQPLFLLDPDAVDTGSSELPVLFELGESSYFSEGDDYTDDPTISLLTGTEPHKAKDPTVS

[27] = target: T6, DNA repair protein RAD52 homolog (Homo sapiens, UniProt P43351); format: functional, biochemical
T6 sequence (P43351 whole entry): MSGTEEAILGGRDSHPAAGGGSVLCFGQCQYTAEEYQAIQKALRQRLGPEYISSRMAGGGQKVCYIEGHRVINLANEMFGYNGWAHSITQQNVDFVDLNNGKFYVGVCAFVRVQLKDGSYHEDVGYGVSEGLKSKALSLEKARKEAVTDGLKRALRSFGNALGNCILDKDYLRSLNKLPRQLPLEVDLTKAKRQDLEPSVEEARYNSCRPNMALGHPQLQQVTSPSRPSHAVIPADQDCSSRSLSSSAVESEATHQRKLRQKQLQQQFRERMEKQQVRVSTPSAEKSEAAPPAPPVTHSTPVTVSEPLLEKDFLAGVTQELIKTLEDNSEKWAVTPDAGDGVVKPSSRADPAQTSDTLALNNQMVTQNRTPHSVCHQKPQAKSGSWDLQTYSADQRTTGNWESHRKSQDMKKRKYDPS

BJ [28] = test: cytotoxicity toward BJ-TERT fibroblasts, dose response, cell-based, RAS-independent, luminescence (AID 1933); format: functional; settings: Homo sapiens
[29] = cytotoxicity toward DRD oncogenic fibroblasts, dose response, cell-based, non-viral oncogenic, luminescence (AID 1934); format: functional; settings: Homo sapiens
BJ [30] = test: cells; format: functional, cell-based; settings: Homo sapiens
[31] = Fluorescence-based cell-based high throughput dose response assay for inhibitors of the interaction of nucleotide-binding oligomerization domain containing 2 (NOD2) and the receptor-interacting serine-threonine kinase 2 (RIPK2).; format: functional; settings: Homo sapiens
Interleukin-8 [32] = target: T7, Interleukin-8 (Homo sapiens, UniProt P10145); test: Dose Response confirmation of uHTS small molecule hits for cystic fibrosis induced NFkb Inhibitors in a PAF-induced IL8 counterscreen.; format: functional; settings: read-out: IC50_Mean
T7 sequence (P10145 whole entry): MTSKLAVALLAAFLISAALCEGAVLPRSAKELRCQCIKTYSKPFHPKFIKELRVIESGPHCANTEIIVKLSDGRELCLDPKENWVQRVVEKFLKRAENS

Interleukin-8 [33] = target: T7, Interleukin-8; test: Dose Response confirmation of uHTS small molecule hits for cystic fibrosis induced NFkb Inhibitors in a TNFa-induced IL8 counterscreen.; format: functional; settings: read-out: IC50_Mean

O=C(O)CC1SC(N/N=C/C=C/c2ccccc2)=NC1=O (stereo not drawn)
IC50 [1]: 97.5 µM (inactive)

CCC(C)n1ncn(-c2ccc(N3CCN(c4ccc(OCC5COC(Cn6cncn6)(c6ccc(Cl)cc6Cl)O5)cc4)CC3)cc2)c1=O (stereo not drawn) [ITRACONAZOLE]
EC50 [2]: > 120 µM (not active) | EC50 [3]: 100 nM (active) | AbsAC35_uM [4]: 105.6 µM | EC50 [5]: 50 µM (active) | EC50 [6]: > 60 µM (not active) | EC50 [7]: > 120 µM (not active) | AC50 [8]: < 195 nM (active)

COc1cc(OC)cc(-c2sc3ccc(OC)cc3c2-c2ccc(OCCN3CCCCC3)cc2)c1
EC50 [9]: 7.51 µM (active) | EC50 [10]: 10.7 µM (active) | EC50 [11]: 10.6 µM (active)

O=C1C(=O)c2cccnc2-c2ncccc21
AC50 [12]: 981 nM (active) | AC50 (Paired box protein Pax-8): 3.32 µM (active) | IC50 [13]: > 123 µM (inactive) | EC50 [14]: 3.64 µM (active) | AC50 [15]: 8.53 µM (active) | IC50 [16]: 12.5 µM (inactive) | IC50 [17]: 6.59 µM (active) | IC50 [18]: 12.1 µM (inactive) | IC50 [19]: 3.51 µM (active) | IC50 [20]: 11.2 µM (inactive)

Cc1ccc(-c2cc3nc(-c4ccccc4)cc(N4CCN(C(=O)c5ccco5)CC4)n3n2)cc1
EC50 [21]: 950 nM (active) | EC50 [22]: 2.41 µM (active)

CCOc1ccc(Nc2nc(N)nc(CN(C)C3CCCCC3)n2)cc1
AC50 [23]: 71.6 µM (active)

COc1ccc(/N=C2\S/C(=C\c3ccc(Cl)c([N+](=O)[O-])c3)C(=O)N2CCN(C)C)cc1
EC50 (BJ [24]): 3.03 µM (inconclusive) | EC50 [2]: > 120 µM (not active) | IC50 (Beta Lactamase): 49.7 µM (inactive) | EC50 (BJ [25]): 1.16 µM (active) | EC50 [26]: 7.54 µM (active) | AC50 [27]: 10.8 µM (active) | EC50 (BJ [28]): 3.18 µM (inconclusive) | EC50 [29]: 2.8 µM (inconclusive) | EC50 [5]: 8.46 µM (active) | EC50 (BJ [30]): 9.3 µM (inconclusive) | EC50 [7]: 8.97 µM (active) | IC50 [31]: 1.5 µM (active)

C=Cc1ccc(CC2(C)C(=O)Nc3ccc(-c4cccnc4)cc32)cc1 (stereo not drawn)
IC50 (Interleukin-8 [32]): 25.5 µM (inactive) | IC50 (Interleukin-8 [33]): 45.1 µM (inactive)
